In patent publication US9597407B2, “Targeted antimicrobial moieties” (C3 Jian, Inc., priority 2009, dated 2017):
Ends that are not written are not given here.

Tested on: microorganisms
Experiment: Morphology, biofilm and growth disruption by peptides (Table 5)
Type: cell-based
Design: key: A: Peptide aggregates; B: Less hyphal formation; Clumps; Diffuse clumps and small polyps; F: Diffuse growth; H: Thin; I: Growth inhibition; Microcolony formation; Rippled; Small polyps; Thick; W: Halo formation on top, microlonies on bottom
Source text: In certain embodiments peptides that induce alterations in phenotype or other biological activities can also be used as antimicrobial effector moieties.

PF-139 (ALSKPAIQARTLCRRQDPP; Peptide with targeting and/or antimicrobial activity)
Organism, effect (C. jeikeium): C. jeikeium (R)
Organism, effect (M. luteus): M. luteus (C)
Organism, effect (S. epidermidis): S. epidermidis (M)

PF-618 (KLNTLNKKDNPSLNDQDKNAVLNLLALAK; Peptide with targeting and/or antimicrobial activity)
Organism, effect (morphology, biofilm and growth disruption) (E. faecalis): E. faecalis (H)
Organism, effect (morphology, biofilm and growth disruption) (S. pneumoniae): S. pneumoniae (I)

PF-449 (MPTTKSKQKGWTNTKKASNTQ; Peptide with targeting and/or antimicrobial activity)
Organism, effect (morphology, biofilm and growth disruption) (S. pneumoniae): S. pneumoniae (H)

PF-418 (FFLVHFYIRKRKGKVSIFLNYF; Peptide with targeting and/or antimicrobial activity)
Organism, effect (C. jejuni): C. jejuni (D)
Organism, effect (E. coli): E. coli (C)
Organism, effect (E. faecalis): E. faecalis (D)
Organism, effect (MRSA): MRSA (D)
Organism, effect (S. epidermidis): S. epidermidis (M)
Organism, effect (S. pneumoniae): S. pneumoniae (D)

TKKIELKRFVDAFVKKSYENYILERELKKLIKAINEELPTK [PF-600]
Organism, effect (morphology, biofilm and growth disruption) (E. coli): E. coli (H)
Organism, effect (morphology, biofilm and growth disruption) (M. luteus): M. luteus (C)
Organism, effect (morphology, biofilm and growth disruption) (MRSA): MRSA (M)
Organism, effect (morphology, biofilm and growth disruption) (S. epidermidis): S. epidermidis (C)
Organism, effect (morphology, biofilm and growth disruption) (S. mutans): S. mutans (S)
Organism, effect (morphology, biofilm and growth disruption) (S. pneumoniae): S. pneumoniae (R)

PF-067 (DLIVKVHICFVVKTASGYCYLNKREAQAAI; Peptide with targeting and/or antimicrobial activity)
Organism, effect (B. subtilis): B. subtilis (C)
Organism, effect (C. jeikeium): C. jeikeium (D)
Organism, effect (C. jejuni): C. jejuni (D)
Organism, effect (M. luteus): M. luteus (R)
Organism, effect (MRSA): MRSA (M)
Organism, effect (P. aeruginosa): P. aeruginosa (A)
Organism, effect (S. epidermidis): S. epidermidis (D)
Organism, effect (S. pneumoniae): S. pneumoniae (D)

PF-203 (SWKCHHLAI; Peptide with targeting and/or antimicrobial activity)
Organism, effect (C. jeikeium): C. jeikeium (R)
Organism, effect (S. epidermidis): S. epidermidis (A)

PF-419 (VVTGKVGSLPQIK; Peptide with targeting and/or antimicrobial activity)
Organism, effect (S. pneumoniae): S. pneumoniae (H)

PF-630 (chain 1 IPATPIIHS; chain 2 IPATPIIHS; Peptide with targeting and/or antimicrobial activity)
Organism, effect (morphology, biofilm and growth disruption) (MRSA): MRSA (M)

SKFKVLRKIIIKEYKGELMLSIQKQR [PF-530]
Organism, effect (morphology, biofilm and growth disruption) (E. coli): E. coli (R)
Organism, effect (morphology, biofilm and growth disruption) (E. faecalis): E. faecalis (C)
Organism, effect (morphology, biofilm and growth disruption) (MRSA): MRSA (C)
Organism, effect (morphology, biofilm and growth disruption) (S. epidermidis): S. epidermidis (H)
Organism, effect (morphology, biofilm and growth disruption) (S. pneumoniae): S. pneumoniae (R)

PF-574 (LVKSGKLESPYEHSEHLTLSQEKGLE; Peptide with targeting and/or antimicrobial activity)
Organism, effect (morphology, biofilm and growth disruption) (B. subtilis): B. subtilis (D)

PF-347 (GIFTGVTVVVSLKHC; Peptide with targeting and/or antimicrobial activity)
Organism, effect (E. coli): E. coli (C)
Organism, effect (E. faecalis): E. faecalis (C)
Organism, effect (MRSA): MRSA (C)
Organism, effect (S. epidermidis): S. epidermidis (C)

RRGCTERLRRMARRNAWDLYAEHFY [PF-148]
Organism, effect (B. subtilis): B. subtilis (I)
Organism, effect (C. albicans): C. albicans (B)
Organism, effect (C. jeikeium): C. jeikeium (H)
Organism, effect (C. jejuni): C. jejuni (H)
Organism, effect (M. luteus): M. luteus (A)
Organism, effect (MRSA): MRSA (C)
Organism, effect (S. epidermidis): S. epidermidis (D)
Organism, effect (S. pneumoniae): S. pneumoniae (R)

PF-076 (LYQYELLSKEEYLKCTLIINQRRNEQK; Peptide with targeting and/or antimicrobial activity)
Organism, effect (C. jeikeium): C. jeikeium (A)
Organism, effect (M. luteus): M. luteus (A)
Organism, effect (MRSA): MRSA (R)
Organism, effect (S. epidermidis): S. epidermidis (S)

YIQFHLNQQPRPKVKKIKIFL-NH2 [PF-531]
Organism, effect (morphology, biofilm and growth disruption) (E. coli): E. coli (M)
Organism, effect (morphology, biofilm and growth disruption) (P. aeruginosa): P. aeruginosa (I)
Organism, effect (morphology, biofilm and growth disruption) (S. epidermidis): S. epidermidis (I)
Organism, effect (morphology, biofilm and growth disruption) (S. pneumoniae): S. pneumoniae (C)

PF-145 (GIVLTGRAGLVSGACSMALGVGLG; Peptide with targeting and/or antimicrobial activity)
Organism, effect (B. subtilis): B. subtilis (C)
Organism, effect (C. jeikeium): C. jeikeium (R)
Organism, effect (C. jejuni): C. jejuni (R)
Organism, effect (M. luteus): M. luteus (A)
Organism, effect (MRSA): MRSA (M)
Organism, effect (S. epidermidis): S. epidermidis (D)
Organism, effect (S. pneumoniae): S. pneumoniae (R)

PF-410 (FALELIALCRNLFIVYFP; Peptide with targeting and/or antimicrobial activity)
Organism, effect (E. coli): E. coli (S)
Organism, effect (E. faecalis): E. faecalis (C)
Organism, effect (MRSA): MRSA (M)
Organism, effect (S. epidermidis): S. epidermidis (C)

PF-398 (ILVVLAGILLVVLSYVGISKFKMNC; Peptide with targeting and/or antimicrobial activity)
Organism, effect (E. coli): E. coli (C)
Organism, effect (E. faecalis): E. faecalis (C)
Organism, effect (MRSA): MRSA (C)
Organism, effect (S. epidermidis): S. epidermidis (C)

PF-634 (chain 1 MPKARPVNHNKKKSKITIKSNFTLFYMFNP; chain 2 MPKARPVNHNKKKSKITIKSNFTLFYMFNP; Peptide with targeting and/or antimicrobial activity)
Organism, effect (morphology, biofilm and growth disruption) (E. coli): E. coli (C)
Organism, effect (morphology, biofilm and growth disruption) (M. luteus): M. luteus (C)
Organism, effect (morphology, biofilm and growth disruption) (MRSA): MRSA (D)
Organism, effect (morphology, biofilm and growth disruption) (P. mirabilis): P. mirabilis (C)
Organism, effect (morphology, biofilm and growth disruption) (S. epidermidis): S. epidermidis (D)
Organism, effect (morphology, biofilm and growth disruption) (S. mutans): S. mutans (D)
Organism, effect (morphology, biofilm and growth disruption) (S. pneumoniae): S. pneumoniae (D)

PF-250 (SEDIFGRLANEKANGLEELRKIRLKQ; Peptide with targeting and/or antimicrobial activity)
Organism, effect (M. luteus): M. luteus (T)

GSVIKKRRKRMAKKKHRKLLKKTRIQRRRAGK [PF-527]
Organism, effect (morphology, biofilm and growth disruption) (B. subtilis): B. subtilis (I)
Organism, effect (morphology, biofilm and growth disruption) (C. albicans): C. albicans (B)
Organism, effect (morphology, biofilm and growth disruption) (C. jeikeium): C. jeikeium (I)
Organism, effect (morphology, biofilm and growth disruption) (C. jejuni): C. jejuni (M)
Organism, effect (morphology, biofilm and growth disruption) (M. luteus): M. luteus (S)
Organism, effect (morphology, biofilm and growth disruption) (MRSA): MRSA (I)
Organism, effect (morphology, biofilm and growth disruption) (P. aeruginosa): P. aeruginosa (I)
Organism, effect (morphology, biofilm and growth disruption) (S. epidermidis): S. epidermidis (M)
Organism, effect (morphology, biofilm and growth disruption) (S. pneumoniae): S. pneumoniae (H)

PF-595 (LQNKIYELLYIKERSKLCS; Peptide with targeting and/or antimicrobial activity)
Organism, effect (morphology, biofilm and growth disruption) (C. jejuni): C. jejuni (D)
Organism, effect (morphology, biofilm and growth disruption) (E. coli): E. coli (C)
Organism, effect (morphology, biofilm and growth disruption) (E. faecalis): E. faecalis (D)
Organism, effect (morphology, biofilm and growth disruption) (MRSA): MRSA (D)
Organism, effect (morphology, biofilm and growth disruption) (S. epidermidis): S. epidermidis (C)
Organism, effect (morphology, biofilm and growth disruption) (S. pneumoniae): S. pneumoniae (R)
